Laboratory results as given in patent US4460605A, “2-[2'-Hydroxy-3'-(1,1-dimethylpropylamino)-propoxy ]-β-phenylpropiophenone, its physiologically acceptable acid addition salts, and pharmaceutical compositions” (Helopharm W. Petrik & Co., priority 1981, dated 1984).
Where a name gives a salt, the structure may show the parent alone. Read-outs that look alike come from different tables or passages of the source.

How the values were obtained:
[1] = tested on: circulation parameters; assay: Circulation parameters in dogs (method of Hapke and Prigge); settings: for Coronary flow volume / Left ventricular peak pressure / Peripheral blood flow volume (A. femoralis) / Diastolic blood pressure (A. femoralis) / Maximum rate of pressure rise (dp/dt) / Systolic blood pressure (A. femoralis) / Heart beat rate change: dog
Source text: For the test method see H. J. Hapke and E. Prigge, Arzneim.-Forsch.

[2] = tested on: model arrhythmias; assay: Tests with animals having model arrhythmias (known compounds); type: in vivo; settings: average (1-3 mg/kg) intravenous doses
[3] = tested on: model arrhythmias; settings: cited from earlier work; for dose at which antiarrhythmic effect appeared: dogs, cats and rabbits
[4] = tested on: heart rate disorders; settings: human medicine; cited from earlier work
[5] = LD50 acute toxicity in dog; settings: in vivo, iv; dog i.v.
[6] = tested on: CHCl3-adrenalin-model arrhythmia; assay: animal or person; type: in vivo, dog
Procedure: The antiarrhythmic effect of the compound of formula I was tested in dogs according to the method of Hapke and Prigge, Arzneim.-Forsch. (Drug Res.), loc. cit. A model arrhythmia which was essentially characterized by ventricular extrasystoles at absolute arrhythmia was produced by infusion of chloroform and adrenalin (epinephrine). At the onset of these rhythm disorders the inventive compound was injected intravenously as aqueous solution of the hydrochloride.
. […] (Drug Res.), loc. cit.

[7] = tested on: rhythm disorders produced by occlusion of a branch of the coronary vessels; assay: Antiarrhythmic effect after oral administration, rhythm disorders by occlusion of a branch of the coronary vessels in dogs; type: in vivo, dog; settings: 10 mg/kg intragastric
Procedure: Again in dogs, the excellent antiarrhythmic effect could be observed after oral administration too. Rhythm disorders were produced by occlusion of a branch of the coronary vessels. The inventive compound was administered intragastrically in the form of the hydrochloride the next day.

Structure (SMILES): CCCNCC(O)COc1ccccc1C(=O)CCc1ccccc1 (stereo not drawn) [propafenone-HCl]
- Coronary flow volume ([1]; 1.0 mg/kg i.v.): +14%
- Left ventricular peak pressure ([1]; 1.0 mg/kg i.v.): -5 mm Hg
- Peripheral blood flow volume (A. femoralis) ([1]; 1.0 mg/kg i.v.): +10%
- Coronary flow volume ([1]; 3.0 mg/kg i.v.): +30%
- Diastolic blood pressure (A. femoralis) ([1]; 3.0 mg/kg i.v.): -40 mm Hg
- Left ventricular peak pressure ([1]; 3.0 mg/kg i.v.): -25 mm Hg
- Maximum rate of pressure rise (dp/dt) ([1]; 3.0 mg/kg i.v.): -29%
- Peripheral blood flow volume (A. femoralis) ([1]; 3.0 mg/kg i.v.): +36%
- Systolic blood pressure (A. femoralis) ([1]; 3.0 mg/kg i.v.): -30 mm Hg
- Coronary flow volume ([1]; 5.0 mg/kg i.v.): +43%
- Left ventricular peak pressure ([1]; 5.0 mg/kg i.v.): -42 mm Hg
- Maximum rate of pressure rise (dp/dt) ([1]; 5.0 mg/kg i.v.): -47%
- Coronary flow volume ([1]; 10.0 mg/kg i.v.): +67%
- Diastolic blood pressure (A. femoralis) ([1]; 10.0 mg/kg i.v.): -60 mm Hg
- Left ventricular peak pressure ([1]; 10.0 mg/kg i.v.): -70 mm Hg
- Maximum rate of pressure rise (dp/dt) ([1]; 10.0 mg/kg i.v.): -62%
- Systolic blood pressure (A. femoralis) ([1]; 10.0 mg/kg i.v.): -65 mm Hg

Structure (SMILES): CCC(C)NCC(O)COc1ccccc1C(=O)CCc1ccccc1 (stereo not drawn) [1-methylpropylamino]
- antiarrhythmic effect [2]: practically no antiarrhythmic effect

Structure (SMILES): CCCNCC(O)COc1ccccc1C(=O)CCc1ccccc1 (stereo not drawn) [propafenone]
- hemodynamic effect ([3]; average (1-3 mg/kg) and higher (5 mg/kg) intravenous doses): hypotensive, negative inotropic effect and dilates the coronary arteries
- dose at which antiarrhythmic effect appeared ([3]; intravenous): 1 mg/kg
- dose at which antiarrhythmic effect appeared ([3]; oral): 2 to 10 mg/kg
- heart rate ([3]; doses producing an antiarrhythmic effect): not substantially affected
- antiarrhythmic effect ([3]; only one of the compounds of German Pat. No. 2 001 431): shows an antiarrhythmic effect
- effect in therapy of heart rate disorders [4]: antiarrhythmic with local anaesthetic, quinidine-like and also β-receptor blocking effect

Structure (SMILES): CCC(C)(C)NCC(O)COc1ccccc1C(=O)CCc1ccccc1 (stereo not drawn) [diprafenone-HCl, 2-[2'-hydroxy-3'-(1,1-dimethylpropylamino)-propoxy]-β-phenylpropiophenone-hydrochloride]
- LD50 [5]: 10 mg/kg
- time to full antiarrhythmic effect ([6]; dogs, 0.05 mg/kg i.v.): ≤ 45 s
- antiarrhythmic effect (sinus rhythm in ECG became normal) ([6]; dogs, 0.05 mg/kg i.v., all dogs treated): fully effective
- extrasystoles ([7]; 30 minutes after application): no extrasystoles could be observed
- extrasystoles ([7]; for 10 minutes after application): observed unchanged
- ECG ([7]; for the 24 hours observed): remained normal
- effect on peripheral and coronary circulation ([1]; comparable doses): does not have an effect on the peripheral and coronary circulation
- Diastolic blood pressure (A. femoralis) ([1]; 0.5 mg/kg i.v.): -16 mm Hg
- Heart beat rate change ([1]; 0.5 mg/kg i.v.): -8 min⁻¹
- Systolic blood pressure (A. femoralis) ([1]; 0.5 mg/kg i.v.): -13 mm Hg
- Diastolic blood pressure (A. femoralis) ([1]; 1.0 mg/kg i.v.): -24 mm Hg
- Heart beat rate change ([1]; 1.0 mg/kg i.v.): -22 min⁻¹
- Systolic blood pressure (A. femoralis) ([1]; 1.0 mg/kg i.v.): -17 mm Hg
- Coronary flow volume ([1]; 3.0 mg/kg i.v.): +56%
- Diastolic blood pressure (A. femoralis) ([1]; 3.0 mg/kg i.v.): -39 mm Hg
- Heart beat rate change ([1]; 3.0 mg/kg i.v.): -24 min⁻¹
- Left ventricular peak pressure ([1]; 3.0 mg/kg i.v.): -46 mm Hg
- Maximum rate of pressure rise (dp/dt) ([1]; 3.0 mg/kg i.v.): -30%
- Systolic blood pressure (A. femoralis) ([1]; 3.0 mg/kg i.v.): -45 mm Hg
- heart beat rate ([1]; doses of 0.5 mg/kg i.v., contrary to propafenone): reduction of the heart beat rate

Structure (SMILES): CCC(C)(C)NCC(O)COc1ccccc1C(=O)CCc1ccccc1 (stereo not drawn) [diprafenone, 2-[2'-hydroxy-3'-(1,1-dimethylpropylamino)-propoxy]-β-phenylpropiophenone]
- minimal effective dose ([6]; Canis lupus familiaris, intravenous, model arrhythmias, read-out: dose showing an antiarrhythmic effect): 0.05 mg/kg
- increase of therapeutic quotient as compared to propafenone ([6]; dog, in vivo): 10-20 times

Structure (SMILES): CCCCNCC(O)COc1ccccc1C(=O)CCc1ccccc1 (stereo not drawn) [n-butylamino]
- antiarrhythmic effect [2]: practically no antiarrhythmic effect

Structure (SMILES): CC(C)(C)NCC(O)COc1ccccc1C(=O)CCc1ccccc1 (stereo not drawn) [tert-butylamino]
- antiarrhythmic effect [2]: practically no antiarrhythmic effect
